Results from patent US7087762B2, “Long-lasting antimicrobial reaction product of allantoin and formaldehyde containing a low level of free formaldehyde” (ISP Investments Inc., priority 2002, dated 2006).

Columns and labels:
C. Albican ATTC1023 = assay: Activity against yeast and mold, 0.3% test solutions; type: cell-based, Candida albicans; set-up: key: + Growth; − No Growth
Excerpt: Activity against yeast and mold:

BC (B. cepacia) = assay: Preservative challenge test, screening emulsion; type: cell-based, Burkholderia cepacia
Procedure: (§1) A typical cosmetic emulsion was prepared for microbiological challenge testing and predetermined admixtures of a methylol compound and IPBC were added at various use levels. The emulsion thus prepared had the following composition:
To prepare the emulsion, Phases A and B were heated separately to 75°–80° C. Phase A then was added to Phase B with mixing. The mixture then was cooled to 55°–60° C. At this point the desired amount of the preservative admixture was added and the product was cooled to 50° C. while stirring. The citric acid solution then was added to adjust the pH and the mixture was stirred until a temperature of 30° C. was reached.
(§2) The challenge tests were carried out using the following microorganisms: SA, ECOLI, PSA, PC, AN and CAN, in this manner. 50 g aliquots of the test emulsion containing various amounts of the preservative admixture were inoculated with approximately 10^7–10^8 of the challenge organisms. The test samples then were stirred to disperse the challenge inoculum. The samples were incubated and assayed at 48 hours, 7, 14, 21 and 28 days. The assays were performed on 1 g of the test sample by serially diluting 10^1 to 10^6 of the original concentration. The plating medium for bacteria was Letheen agar and for fungi it was low pH Mycophil agar with Tween 20. Each plated sample was incubated for 48 hours at 37° C. for bacteria, 5 days at 25° C. for mold, and 3 days at 25° C. for fungi. After incubation, readings of the number of colonies per milliliter (cfu/ml) were made. At 21 days the test product was reinoculated with half of the original inoculum.

AN (Aspergillus niger) = assay: Preservative challenge test, nonionic emulsion; type: cell-based
Procedure: as §1, §2

CAN (Candida albicans) = assay: Preservative challenge test, nonionic emulsion; type: cell-based
Procedure: as §1, §2

[1] = tested on: EC (ECOLI, Escherichia coli); assay: Preservative challenge test, nonionic emulsion; type: cell-based
Procedure: as §1, §2

[2] = tested on: PSA (Pseudomonas aeruginosa); assay: Preservative challenge test, nonionic emulsion; type: cell-based
Procedure: as §1, §2

[3] = tested on: SA (Staphylococcus aureus); assay: Preservative challenge test, nonionic emulsion; type: cell-based
Procedure: as §1, §2

For O=C1C(N(CO)C(=O)NCO)N(CO)C(=O)N1CO (centres unmarked) [Germall II], which “Growth, C. Albican ATTC1023” value (C. Albican ATTC1023) is on record?
The value was “−”.

And the “cfu/ml, 48 hrs” value (BC (B. cepacia); 250 ppm)?
The value was under 10 cfu/ml.

And the “cfu/ml, 7 days” value (BC (B. cepacia); 250 ppm)?
Its value is under 10 cfu/ml.

What about the “cfu/ml, 14 days” value (BC (B. cepacia); 250 ppm) of the same molecule?
The value was under 10 cfu/ml.

What about the “cfu/ml, 21 days” value (BC (B. cepacia); 250 ppm) of the same molecule?
The value was under 10 cfu/ml.

And the “cfu/ml, 28 days” value (BC (B. cepacia); 250 ppm)?
The value was under 10 cfu/ml.

And the “cfu/ml, 48 hrs” value (BC (B. cepacia); 500 ppm)?
Its value is under 10 cfu/ml.

And the “cfu/ml, 7 days” value (BC (B. cepacia); 500 ppm)?
Its value is under 10 cfu/ml.

What about the “cfu/ml, 14 days” value (BC (B. cepacia); 500 ppm) of the same molecule?
The value was under 10 cfu/ml.

And the “cfu/ml, 21 days” value (BC (B. cepacia); 500 ppm)?
Its value is under 10 cfu/ml.

What about the “cfu/ml, 28 days” value (BC (B. cepacia); 500 ppm) of the same molecule?
Its value is under 10 cfu/ml.

What about the “cfu/ml, 48 hrs” value (BC (B. cepacia); 1000 ppm) of the same molecule?
Its value is under 10 cfu/ml.

What about the “cfu/ml, 7 days” value (BC (B. cepacia); 1000 ppm) of the same molecule?
The value was under 10 cfu/ml.

And the “cfu/ml, 14 days” value (BC (B. cepacia); 1000 ppm)?
The value was under 10 cfu/ml.

And the “cfu/ml, 21 days” value (BC (B. cepacia); 1000 ppm)?
Its value is under 10 cfu/ml.

What about the “cfu/ml, 28 days” value (BC (B. cepacia); 1000 ppm) of the same molecule?
The value was under 10 cfu/ml.

What about the “cfu/ml, 48 hrs” value (BC (B. cepacia); 2000 ppm) of the same molecule?
Its value is under 10 cfu/ml.

And the “cfu/ml, 7 days” value (BC (B. cepacia); 2000 ppm)?
The value was under 10 cfu/ml.

What about the “cfu/ml, 14 days” value (BC (B. cepacia); 2000 ppm) of the same molecule?
The value was under 10 cfu/ml.

What about the “cfu/ml, 21 days” value (BC (B. cepacia); 2000 ppm) of the same molecule?
Its value is under 10 cfu/ml.

And the “cfu/ml, 28 days” value (BC (B. cepacia); 2000 ppm)?
Its value is under 10 cfu/ml.

What about the “cfu/ml, 48 hrs” value (AN (Aspergillus niger); 2000 ppm) of the same molecule?
Its value is under 10 cfu/ml.

What about the “cfu/ml, 7 days” value (AN (Aspergillus niger); 2000 ppm) of the same molecule?
Its value is under 10 cfu/ml.

What about the “cfu/ml, 14 days” value (AN (Aspergillus niger); 2000 ppm) of the same molecule?
Its value is under 10 cfu/ml.

What about the “cfu/ml, 21 days” value (AN (Aspergillus niger); 2000 ppm) of the same molecule?
The value was under 10 cfu/ml.

What about the “cfu/ml, 28 days” value (AN (Aspergillus niger); 2000 ppm) of the same molecule?
The value was under 10 cfu/ml.

What about the “cfu/ml, 48 hrs” value (AN (Aspergillus niger); 4000 ppm) of the same molecule?
Its value is under 10 cfu/ml.

What about the “cfu/ml, 7 days” value (AN (Aspergillus niger); 4000 ppm) of the same molecule?
The value was under 10 cfu/ml.

And the “cfu/ml, 14 days” value (AN (Aspergillus niger); 4000 ppm)?
The value was under 10 cfu/ml.

What about the “cfu/ml, 21 days” value (AN (Aspergillus niger); 4000 ppm) of the same molecule?
Its value is under 10 cfu/ml.

What about the “cfu/ml, 28 days” value (AN (Aspergillus niger); 4000 ppm) of the same molecule?
Its value is under 10 cfu/ml.

And the “cfu/ml, 48 hrs” value (CAN (Candida albicans); 2000 ppm)?
Its value is 320,000 cfu/ml.

And the “cfu/ml, 7 days” value (CAN (Candida albicans); 2000 ppm)?
The value was 720,000 cfu/ml.

And the “cfu/ml, 14 days” value (CAN (Candida albicans); 2000 ppm)?
The value was 650,000 cfu/ml.

And the “cfu/ml, 21 days” value (CAN (Candida albicans); 2000 ppm)?
Its value is 730,000 cfu/ml.

And the “cfu/ml, 28 days” value (CAN (Candida albicans); 2000 ppm)?
Its value is over 1E6 cfu/ml.

What about the “cfu/ml, 48 hrs” value (CAN (Candida albicans); 4000 ppm) of the same molecule?
Its value is 50 cfu/ml.

What about the “cfu/ml, 7 days” value (CAN (Candida albicans); 4000 ppm) of the same molecule?
The value was 10,000 cfu/ml.

What about the “cfu/ml, 14 days” value (CAN (Candida albicans); 4000 ppm) of the same molecule?
The value was 620,000 cfu/ml.

What about the “cfu/ml, 21 days” value (CAN (Candida albicans); 4000 ppm) of the same molecule?
Its value is 460,000 cfu/ml.

And the “cfu/ml, 28 days” value (CAN (Candida albicans); 4000 ppm)?
Its value is over 1E6 cfu/ml.

And the “cfu/ml, 48 hrs” value ([1]; 2000 ppm)?
The value was under 10 cfu/ml.

And the “cfu/ml, 7 days” value ([1]; 2000 ppm)?
Its value is under 10 cfu/ml.

What about the “cfu/ml, 14 days” value ([1]; 2000 ppm) of the same molecule?
Its value is under 10 cfu/ml.

And the “cfu/ml, 21 days” value ([1]; 2000 ppm)?
The value was under 10 cfu/ml.

What about the “cfu/ml, 28 days” value ([1]; 2000 ppm) of the same molecule?
The value was under 10 cfu/ml.

What about the “cfu/ml, 48 hrs” value ([1]; 4000 ppm) of the same molecule?
Its value is under 10 cfu/ml.

What about the “cfu/ml, 7 days” value ([1]; 4000 ppm) of the same molecule?
Its value is under 10 cfu/ml.

And the “cfu/ml, 14 days” value ([1]; 4000 ppm)?
The value was under 10 cfu/ml.

And the “cfu/ml, 21 days” value ([1]; 4000 ppm)?
The value was under 10 cfu/ml.

And the “cfu/ml, 28 days” value ([1]; 4000 ppm)?
The value was under 10 cfu/ml.

What about the “cfu/ml, 48 hrs” value ([2]; 2000 ppm) of the same molecule?
Its value is under 10 cfu/ml.

What about the “cfu/ml, 7 days” value ([2]; 2000 ppm) of the same molecule?
Its value is under 10 cfu/ml.

And the “cfu/ml, 14 days” value ([2]; 2000 ppm)?
The value was under 10 cfu/ml.

What about the “cfu/ml, 21 days” value ([2]; 2000 ppm) of the same molecule?
The value was under 10 cfu/ml.

What about the “cfu/ml, 28 days” value ([2]; 2000 ppm) of the same molecule?
The value was under 10 cfu/ml.

What about the “cfu/ml, 48 hrs” value ([2]; 4000 ppm) of the same molecule?
The value was under 10 cfu/ml.

And the “cfu/ml, 7 days” value ([2]; 4000 ppm)?
The value was under 10 cfu/ml.

What about the “cfu/ml, 14 days” value ([2]; 4000 ppm) of the same molecule?
Its value is under 10 cfu/ml.

What about the “cfu/ml, 21 days” value ([2]; 4000 ppm) of the same molecule?
Its value is under 10 cfu/ml.

What about the “cfu/ml, 28 days” value ([2]; 4000 ppm) of the same molecule?
The value was under 10 cfu/ml.

And the “cfu/ml, 48 hrs” value ([3]; 2000 ppm)?
The value was under 10 cfu/ml.

What about the “cfu/ml, 7 days” value ([3]; 2000 ppm) of the same molecule?
Its value is under 10 cfu/ml.

And the “cfu/ml, 14 days” value ([3]; 2000 ppm)?
Its value is under 10 cfu/ml.

What about the “cfu/ml, 21 days” value ([3]; 2000 ppm) of the same molecule?
Its value is under 10 cfu/ml.

What about the “cfu/ml, 28 days” value ([3]; 2000 ppm) of the same molecule?
The value was under 10 cfu/ml.

And the “cfu/ml, 48 hrs” value ([3]; 4000 ppm)?
Its value is under 10 cfu/ml.

What about the “cfu/ml, 7 days” value ([3]; 4000 ppm) of the same molecule?
Its value is under 10 cfu/ml.

And the “cfu/ml, 14 days” value ([3]; 4000 ppm)?
The value was under 10 cfu/ml.

And the “cfu/ml, 21 days” value ([3]; 4000 ppm)?
Its value is under 10 cfu/ml.

And the “cfu/ml, 28 days” value ([3]; 4000 ppm)?
Its value is under 10 cfu/ml.
